Source: article PMC6201930 (PLoS ONE, 2018)
Several values for one entry are separate records, joined by “and”; a condition that tells them apart may be missing. Identical values can stand only once. Like-named read-outs stand apart in the source and are kept apart here.

What was measured:
[1] = system: zebrafish neuromasts (hair cells); test: Neuromast toxicity assay (DASPEI staining)
Method: All neuromast cytotoxicity assays were done at Biobide–BBD Biophenix SL (Gipuzkoa, Spain). […] Compounds were tested at 5 doses. After 24 hours of exposure embryos were incubated in DASPEI (2-(4-(dimethylamino)styryl) -N-Ethylpyridinium Iodide) for neuromast staining. Images of each embryo were taken and neuromasts counted. A compound was classified as ototoxic when the number of neuromasts in the treated group was less than that in the untreated control group (One Way ANOVA, multiple comparisons vs. vehicle).

primary mouse myoblasts = test: Cytotoxicity in myoblasts; details: read-out: Myoblast CC50
Source text: (§1) When considering compounds for potential readthrough therapy it is important to monitor cellular and animal safety. In order to determine the most promising compounds to further evaluate in in vivo safety, we measured cytotoxicity in two different cell types. We used activated human peripheral blood mononuclear cells (PBMCs) (Table 2 and Fig 2D and 2E). PBMCs are a primary cell that when activated with phytohaemagglutinin (PHA) expand quickly and are commonly used as an in vitro surrogate for rapidly growing cells in the human body to evaluate cytotoxicity. Prior to advancing compounds into human studies, safety evaluation in rodents is performed. As an in vitro surrogate for rodent toxicity, we used primary mouse myoblasts.

[2] = system: p53 R213* UGA premature termination codon in HDQ-P1 mammary carcinoma cells; test: HDQ-p53UGA213 readthrough assay (full-length p53, MSD immunoassay); type: cell-based, human
Method: We utilized HDQ-P1 mammary carcinoma cells, which are homozygous for R213*, a UGA premature termination codon in the gene for the tumor suppressor protein p53 [30]. […] Western blot hybridization and Meso Scale Discovery (MSD) immunoassay detection of p53 were done as previously described. […] Cells (45K per well) were grown in 96-well plates and treated with compounds for 24 hours. […] Cells were lysed with 60 μl per well of lysis buffer (20 mM Tris-HCL, pH 7.5, 1 mM EGTA, 1 mM EDTA,150 mM Nacl, 0.5% Triton X100) for one hour at room temperature and 30 μl of lysate per well were transferred to the coated plate and incubated overnight at 4 °C. […] Plates were then washed three times with PBS-T and 30 μl of 0.25 μ/ml goat anti-rabbit IgG-Sulfo-tag antibody (MSD) in TBS-C was added and incubated for 1 hour at room temperature. Plates were then washed three times with PBS-T and 150 μl read buffer (MSD) was added. Plates were read immediately in a SECTOR S 600 (MSD).

[3] = system: activated human peripheral blood mononuclear cells (PBMCs); test: Cytotoxicity in stimulated PBMCs (CellTitre-Glo ATP); details: read-out: Stimulated PBMC CC50
Source text: as §1
Frozen human Peripheral Blood Mononuclear Cells (PBMCs) were obtained from […] (Alameda, CA, Cat# PB003F) from a single donor. […] Plates were incubated at 37°C with 5% CO2 for 4 hours prior to compound treatment. Compounds were serially diluted and added to the plates. Plates were incubated at 37°C, 5% CO2 incubator, for 72 hours prior to determinations of ATP levels. Cell viability was determined using a chemiluminescent assay to monitor adenosine triphosphate (ATP) levels in live cells (CellTitre-Glo; CTG; Promega, Cat#G7571). Methods were performed per the manufacturer’s instructions.

[4] = system: fLuc mRNA harboring a UGA nonsense mutation at codon 190 (fLuc-190-NS); type: biochemical, rabbit
Source text: ThefLuc-190-NS assay is an in vitro rabbit reticulocyte lysate translation of an fLuc mRNA harboring a UGA nonsense mutation at codon 190 (fLuc-190-NS). It is believed that positively charged aminoglycosides are poorly taken up by cells, and we used this cell-free readthrough assay to eliminate the potential variable of cell uptake when measuring readthrough potency. […] Readthrough protein was detected using a HA-HIS MSD immunoassay described previously.
This cell-free translation assay used synthetic LUC mRNAs harboring an EMCV IRES and LUC codon 190-UGA premature stop codon prepared using the MegaScript in vitro transcription kit (Ambion). Translation reactions were done with the Rabbit Reticulocyte Lysate System (Promega) with 100 ng RNA and increasing concentrations of aminoglycosides. The amount of luminescence produced was determined after approximately 4 hours using a Viewlux CCD imager (Perkin-Elmer). Fold suppression over background was calculated as (aminoglycoside light units/PBS light units).

[5] = system: tGFP-CFTR542X-HA-HIS construct (codon 542 UGA) in 293H cells; test: tGFP-542X readthrough assay (HA-HIS MSD immunoassay); type: cell-based, human
mouse cochlear explants = system: mouse cochlear explants; design: method as in PMID 24251786; details: obtained previously; cited from earlier work
[6] = individual determinations (S1 File)
[7] = individual experiments (S1 File)
[8] = AVERAGE (S1 File), unit not given for EC5X
[9] = individual experiments (S1 File), unit not printed for EC5X (EC2X of the sheet in uM)

## C[C@@H](O)C1O[C@H](O[C@@H]2C(N)C[C@@H](NC(=O)[C@@H](O)CCN)[C@@H](O)C2O[C@@H]2O[C@H](CN)[C@H](O)C2O)[C@@H](N)C(O)[C@@H]1O (some centres unmarked) [NB84, reference compound]
[1]; read-out: Neuromast (CC50), zebrafish embryos 5 dpf, 24 hours exposure, maximum of two measurements
  CC50: 8 ± 0.1 µM
[1]; read-out: Neuromast CC50, AVERAGE (S1 File)
  CC50: 7.9 µM
[1]; read-out: Neuromast CC50, individual determinations (S1 File)
  CC50: 7.8 µM
Primary mouse myoblasts; AVERAGE (S1 File)
  CC50: 279 µM
Primary mouse myoblasts; [6]
  CC50: 411 µM and 147 µM
[2]; AVERAGE (S1 File)
  HDQ-p53UGA213 EC2X: 16.6 µM
  HDQ-p53UGA213 max: 29.7
[2]; concentration required to double the level of full-length p53 protein, average ± SD, at least three experiments, highest concentration 300 μM
  HDQ-p53UGA213 EC2X: 17 ± 5 µM
[2]; [7]
  HDQ-p53UGA213 EC2X: 20.31 µM and <15.63 µM and 17.59 µM and 8.82 µM and 19.52 µM
[2]; individual experiments (S1 File), max fold
  HDQ-p53UGA213 max: 15.6 and 52.2 and 25.2 and 30.9 and 25.4 and 29
[2]; maximum readthrough activity above background, average ± SD
  HDQ-p53UGA213 (Maxfold): 30 ± 12 fold
[3]; AVERAGE (S1 File)
  CC50: 440 µM
[3]; [6]
  CC50: 536 µM and 1160 µM and 179 µM and 156 µM and 173 µM
[4]; AVERAGE (S1 File)
  fLuc-190-NS EC2X: 0.0453 µM
  fLuc-190-NS MaxFold: 180.8
[4]; [8]
  fLuc-190-NS EC5X: 0.1430
[4]; cell-free, average ± SD
  fLuc-190-NS EC2X: 0.045 ± 0.011 µM
[4]; [7]
  fLuc-190-NS EC2X: 0.0389 µM and 0.0393 µM and 0.0578 µM
  fLuc-190-NS MaxFold: 172.62 and 163.42 and 206.48
[4]; [9]
  fLuc-190-NS EC5X: 0.1461 and 0.1276 and 0.1554
[5]; 293H cells, 24 hours, average ± SD
  tGFP-542X EC2X: 38 ± 12 µM
[5]; AVERAGE (S1 File)
  tGFP-542X EC2X: 38.2 µM
  tGFP-542X Maxfold: 110.3
[5]; [8]
  tGFP-542X EC5X: 109.2
[5]; [7]
  tGFP-542X EC2X: 25 µM and 46 µM and 44 µM
  tGFP-542X Maxfold: 176 and 74 and 81
[5]; [9]
  tGFP-542X EC5X: 67 and 132 and 128
[5]; maximum readthrough above background, average ± SD
  tGFP-542X Maxfold: 110 ± 57 fold
Mouse cochlear explants
  CC50: 20 µM
